Test system: chromaffin cells permeabilized with digitonin
Experiment: Inhibition of the release of catecholamines induced by calcium in permeabilized chromaffin cells
Format: cell-based, bovine
Settings: peptide at 1 mM, stimulated with calcium
Procedure: The neuronal-exocytosis (neurosecretion) inhibiting capabilities of the peptides of the invention became evident through a test that evaluates the strength of said peptides in inhibiting the release of catecholamines induced by calcium in chromaffin cells permeabilized with a detergent [see Example 1.2.1]. Briefly, the chromaffin cell cultures are incubated with epinephrine and norepinephrine containing tritium, are permeabilized with digitonin, and stimulated with calcium, and the amount of radioactivity released by the cells to the extracellular medium, which is a reflection of the exocytosis of said tritium-containing catecholamines, is measured.
This test was performed to verify the neuronal exocytosis-inhibiting capabilities of the peptides synthesized in Example 1.1. In this test, the strength of said peptides is evaluated in inhibiting the release of catecholamines (norepinephrine and epinephrine) induced by calcium in chromaffin cells (obtained from suprarenal bovine glands) permeabilized with the detergent digitonin, in accordance with the method described by Gutiérrez el al. (1995 and 1997).
Briefly, the chromaffin cell cultures are incubated with [^3H]-epinephrine and [^3H]-norepinephrine, are permeabilized with 20 μM digitonin, and stimulated with calcium (10 μM), in the presence of the peptides to be tested (separate or mixed), and the amount of radioactivity released by the cells to the extracellular medium, which is a reflection of the exocytosis of [^3H]-epinephrine and [^3H]-norepinephrine, is measured.

SEQ. ID. No. 2: hexapeptide from the amino end of protein SNAP-25 (EEMQRR)
inhibition of the release of catecholamines (epinephrine and norepinephrine): approximately 20%

SEQ. ID. No. 5: peptide from the carboxyl end of SNAP-25 [SEQ. ID. No. 4], (COOH) peptide (RIMEKADSNKTRIDEANQ)
inhibition of the release of catecholamines (epinephrine and norepinephrine): approximately 40%

SEQ. ID. No. 3: peptide with 13 amino acids from the amino end of protein SNAP-25 (ELEEMQRRADQLA)
inhibition of the release of catecholamines (epinephrine and norepinephrine): approximately 35%

SEQ. ID. No. 6: peptide from the carboxyl end of SNAP-25 [SEQ. ID. No. 4], (COOH) peptide (ADSNKTRIDEANQRATKML)
inhibition of the release of catecholamines (epinephrine and norepinephrine): approximately 40%
